22 molecules from PubChem BioAssay AID200 (DTP/NCI, 2004) can be followed below.

Values joined by “and” are separate entries in the source; they are usually repeats but may differ in a detail not shown here. Equal values may be shown once. Inconclusive results and toxic doses are left out.

The experiment relates to B6C3F1 mice, B16 melanoma ip, median survival T/C. In words: NCI In Vivo Anticancer Drug Screen. Data for tumor model B16 Melanoma (intraperitoneal) in B6C3F1 mice. As to conditions: endpoint: median survival time, higher = longer survival. In a few lines: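 Antitumor effect was judged in mice with transplanted tumors by dividing the treated group's survival measure by that of vehicle controls.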

Where [1] appears, read: dose: 12.5 mg/kg/injection, schedule: Q01DX009 (ip), vehicle: saline.
[2] abbreviates: dose: 25.0 mg/kg/injection, schedule: Q01DX009 (ip), vehicle: saline.
The mark [3] stands for this setting: dose: 50.0 mg/kg/injection, schedule: Q01DX009 (ip), vehicle: saline.
[4] abbreviates: dose: 100.0 mg/kg/injection, schedule: Q01DX009 (ip), vehicle: saline.
Setting [5] is: dose: 200.0 mg/kg/injection, schedule: Q01DX009 (ip), vehicle: saline.
[6] abbreviates: dose: 400.0 mg/kg/injection, schedule: Q01DX009 (ip), vehicle: saline.
Setting [7] is: dose: 3.13 mg/kg/injection, schedule: Q01DX009 (ip), vehicle: saline with Tween-80.
Where [8] appears, read: dose: 6.25 mg/kg/injection, schedule: Q01DX009 (ip), vehicle: saline with Tween-80.
Where [9] appears, read: dose: 12.5 mg/kg/injection, schedule: Q01DX009 (ip), vehicle: saline with Tween-80.
Where [10] appears, read: dose: 25.0 mg/kg/injection, schedule: Q01DX009 (ip), vehicle: saline with Tween-80.
[11] abbreviates: dose: 50.0 mg/kg/injection, schedule: Q01DX009 (ip), vehicle: saline with Tween-80.
Setting [12] is: dose: 100.0 mg/kg/injection, schedule: Q01DX009 (ip), vehicle: saline with Tween-80.
[13] abbreviates: dose: 3.12 mg/kg/injection, schedule: Q01DX009 (ip), vehicle: saline with Tween-80.
The mark [14] stands for this setting: dose: 200.0 mg/kg/injection, schedule: Q01DX009 (ip), vehicle: saline with Tween-80.

Take `CCOC(=O)C(N)CSC(=O)NC` (stereo not given): the T/C is 103 % of control and 106 % of control under setting [1]; 108 % of control and 92 % of control under setting [2]; 103 % of control and 106 % of control under setting [3]; 108 % of control and 93 % of control under setting [4]; 109 % of control under setting [5]; 124 % of control under setting [6].

Take `Cn1cnc([N+](=O)[O-])c1Sc1nc(N)nc2c1ncn2C1OC(CO)C(O)C1O` (stereo not given): the T/C is 116 % of control (dose: 3.12 mg/kg/injection, schedule: Q01DX009 (ip), vehicle: suspension in saline); 111 % of control under setting [7]; 97 % of control under setting [8]; 117 % of control (dose: 6.25 mg/kg/injection, schedule: Q01DX009 (ip), vehicle: suspension in saline); 94 % of control under setting [9]; 93 % of control (dose: 12.5 mg/kg/injection, schedule: Q01DX009 (ip), vehicle: suspension in saline).

`Cn1c2ccccc2c2ccc3c(c21)C(=O)C=CC3=O`: the T/C by setting is: (dose: 6.25 mg/kg/injection, schedule: Q01DX009 (ip), vehicle: Klucel (hydroxypropylcellulose) (HPC)) 96 % of control; (dose: 12.5 mg/kg/injection, schedule: Q01DX009 (ip), vehicle: Klucel (hydroxypropylcellulose) (HPC)) 107 % of control.

Take `Cc1cc(=O)n2c3c(c4c(cc13)c(CN(C)C)cc(=O)n4C)OC2`: the T/C is 105 % of control under setting [8], 98 % of control under setting [9], 100 % of control under setting [10] and 111 % of control under setting [11].

Regarding `N#CN=[N+]([O-])c1ccc(C(=O)O)cc1`, the T/C is 99 % of control and 101 % of control (dose: 1.87 mg/kg/injection, schedule: Q01DX009 (ip), vehicle: Klucel (hydroxypropylcellulose) (HPC)); 96 % of control and 105 % of control (dose: 3.75 mg/kg/injection, schedule: Q01DX009 (ip), vehicle: Klucel (hydroxypropylcellulose) (HPC)); 95 % of control and 102 % of control (dose: 7.5 mg/kg/injection, schedule: Q01DX009 (ip), vehicle: Klucel (hydroxypropylcellulose) (HPC)); 89 % of control and 91 % of control (dose: 15.0 mg/kg/injection, schedule: Q01DX009 (ip), vehicle: Klucel (hydroxypropylcellulose) (HPC)); 90 % of control and 97 % of control (dose: 30.0 mg/kg/injection, schedule: Q01DX009 (ip), vehicle: Klucel (hydroxypropylcellulose) (HPC)).

As to `COP12(OCCO1)SC(C(F)(F)F)=C(C(F)(F)F)S2`, the T/C is 100 % of control under setting [9], 96 % of control under setting [10] and 104 % of control under setting [11].

As to `Cc1cc(NCCCN(C)C)c2ccc3c(ccc4c(NCCCN(C)C)cc(C)nc43)c2n1`, the T/C was 114 % of control (dose: 0.19 mg/kg/injection, schedule: Q01DX009 (ip), vehicle: saline); 102 % of control (dose: 0.39 mg/kg/injection, schedule: Q01DX009 (ip), vehicle: saline); 91 % of control (dose: 0.78 mg/kg/injection, schedule: Q01DX009 (ip), vehicle: saline); 106 % of control (dose: 1.56 mg/kg/injection, schedule: Q01DX009 (ip), vehicle: saline); 113 % of control and 102 % of control (dose: 3.12 mg/kg/injection, schedule: Q01DX009 (ip), vehicle: saline).

As for `[O-][n+]1c(CN2CCCCC2)nc2cccc3c2c1-c1ccccc1-3`, the T/C reads like this: under setting [9], 98 % of control; under setting [10], 88 % of control; under setting [11], 102 % of control; under setting [12], 91 % of control; (dose: 400.0 mg/kg/injection, schedule: Q01DX009 (ip), vehicle: saline with Tween-80) 103 % of control.

Turning to `O=c1ncccn1[C@@H]1O[C@H](CO)[C@H](O)C1O` (stereo not given in full), the T/C was 122 % of control under setting [2]; 116 % of control and 107 % of control under setting [3]; 122 % of control under setting [4]; 120 % of control and 122 % of control under setting [5]; 180 % of control under setting [6].

As for `O=C1c2cccc3cc([N+](=O)[O-])cc(c23)C(=O)N1CCN1CCCC1`, the T/C under setting [8] was 122 % of control and the T/C under setting [10] was 108 % of control.

On to `CC(C)N1C(=O)C=C(c2ccc([N+](=O)[O-])cc2)C1=O`, for which the T/C runs as follows: under setting [13], 104 % of control; under setting [8], 111 % of control; under setting [9], 105 % of control; under setting [10], 105 % of control.

As to `Nc1ccc(C(OC(=O)c2cc3ccccc3c(Cc3c(O)c(C(=O)OC(c4ccc(N)cc4)(c4ccc(N)cc4)c4ccc(N)cc4)cc4ccccc34)c2O)(c2ccc(N)cc2)c2ccc(N)cc2)cc1`, the T/C runs as follows: (dose: 0.78 mg/kg/injection, schedule: Q01DX009 (ip), vehicle: saline with Tween-80) 112 % of control and 96 % of control; under setting [13], 111 % of control and 107 % of control; under setting [7], 104 % of control.

Consider `Cc1cc(Br)c2nsnc2c1[N+](=O)[O-]`, for which the T/C is, setting by setting: under setting [10], 95 % of control; under setting [11], 95 % of control; under setting [12], 103 % of control; under setting [14], 90 % of control.

Take `O=C1C2=C(C(=O)c3cnccc31)C1C=CC2CC1` (stereo not given): the T/C by setting is: (dose: 12.5 mg/kg/injection, schedule: Q01DX009 (ip), vehicle: DMSO) 115 % of control; (dose: 25.0 mg/kg/injection, schedule: Q01DX009 (ip), vehicle: DMSO) 98 % of control; (dose: 50.0 mg/kg/injection, schedule: Q01DX009 (ip), vehicle: DMSO) 111 % of control; (dose: 100.0 mg/kg/injection, schedule: Q01DX009 (ip), vehicle: DMSO) 98 % of control.

As to `Cc1c2ccncc2c(C)c2c1[nH]c1ccccc12`, the T/C reads like this: (dose: 1.25 mg/kg/injection, schedule: Q01DX009 (ip), vehicle: distilled water + Tween-80) 106 % of control; (dose: 1.25 mg/kg/injection, schedule: Q01DX009 (ip), vehicle: water) 105 % of control; (dose: 2.5 mg/kg/injection, schedule: Q01DX009 (ip), vehicle: distilled water + Tween-80) 117 % of control; (dose: 2.5 mg/kg/injection, schedule: Q01DX009 (ip), vehicle: water) 104 % of control; (dose: 5.0 mg/kg/injection, schedule: Q01DX009 (ip), vehicle: water) 117 % of control; (dose: 10.0 mg/kg/injection, schedule: Q01DX009 (ip), vehicle: distilled water + Tween-80) 151 % of control. Moreover, under “dose: 20.0 mg/kg/injection, schedule: Q01DX009 (ip), vehicle: distilled water + Tween-80”, the T/C was 173 % of control.

Take `Brc1ccc(C[N+]23CN4CN(CN(C4)C2)C3)cc1`: the T/C reads like this: under setting [9], 100 % of control; under setting [10], 98 % of control; under setting [11], 101 % of control; under setting [12], 108 % of control; under setting [14], 112 % of control.

Consider `CC1Nc2ccccc2NC1C` (stereo not given), for which the T/C is 108 % of control under setting [10], 98 % of control under setting [11] and 96 % of control under setting [12].

With `Cc1cc2nc3[nH]c4ccccc4c3nc2cc1C`, the T/C reads like this: (dose: 12.5 mg/kg/injection, schedule: Q01DX008 (ip), vehicle: saline) 91 % of control; (dose: 25.0 mg/kg/injection, schedule: Q01DX008 (ip), vehicle: saline) 90 % of control; (dose: 50.0 mg/kg/injection, schedule: Q01DX008 (ip), vehicle: saline) 101 % of control; (dose: 100.0 mg/kg/injection, schedule: Q01DX008 (ip), vehicle: saline) 91 % of control; (dose: 200.0 mg/kg/injection, schedule: Q01DX008 (ip), vehicle: saline) 86 % of control; (dose: 400.0 mg/kg/injection, schedule: Q01DX008 (ip), vehicle: saline) 88 % of control.

Regarding `CCCCCCCCCCCCNCCCc1ccccc1`, the T/C runs as follows: under setting [9], 94 % of control; under setting [10], 93 % of control.

For `Cc1ccc(NCCN(C)C)c2c(=O)c3cc(O)ccc3sc12`, the T/C is, setting by setting: (dose: 12.0 mg/kg/injection, schedule: Q01DX009 (ip), vehicle: Klucel (hydroxypropylcellulose) (HPC)) 164 % of control; (dose: 25.0 mg/kg/injection, schedule: Q01DX009 (ip), vehicle: Klucel (hydroxypropylcellulose) (HPC)) 183 % of control; (dose: 50.0 mg/kg/injection, schedule: Q01DX009 (ip), vehicle: Klucel (hydroxypropylcellulose) (HPC)) 87 % of control.

As for `OCCCN1CCCCC1CO` (stereo not given), the T/C under setting [1] was 94 % of control; the T/C under setting [2] is 106 % of control; the T/C under setting [3] was 99 % of control; the T/C under setting [4] is 105 % of control; the T/C under setting [5] is 101 % of control; the T/C under setting [6] is 111 % of control and 101 % of control. The T/C (dose: 800.0 mg/kg/injection, schedule: Q01DX009 (ip), vehicle: saline) is 112 % of control.

In the case of `Cn1c(=O)c(-c2ccccc2)[n+]([O-])c2ccccc21`, the T/C reads like this: under setting [10], 98 % of control; under setting [11], 122 % of control; under setting [12], 101 % of control; under setting [14], 94 % of control.
